Results: patent publication US20070066608A1, “Novel indole derivatives with an improved antipsychotic activity” (priority 2003, published 2007)

How the values were obtained:
[1] = biological target: T1, Human Dopamine D2L receptor (Homo sapiens, UniProt P14416); experiment: Radioligand binding experiment for dopamine D2 receptor (hD2), [3H]Spiperone; conditions: membranes of D2L receptor-transfected CHO cells, read-out: pIC50 D2 (converted)
T1 construct: expressed in transfected cells; host or cells: CHO cells
Description: (§1) The interaction of the compounds of Formula (I) with dopamine-receptors, h5HT-transporter and h5HT1A receptor was assessed in in vitro radioligand binding experiments. In general, a low concentration of a radioligand with a high binding affinity for a particular receptor or transporter is incubated with a sample of a tissue preparation enriched in a particular receptor or transporter or with a preparation of cells expressing cloned human receptors in a buffered medium. During the incubation, the radioligand binds to the receptor or transporter. When equilibrium of binding is reached, the receptor bound radioactivity is separated from the non-bound radioactivity, and the receptor- or transporter-bound activity is counted The interaction of the test compounds with the receptor is assessed in competition binding experiments. Various concentrations of the test compound are added to the incubation mixture containing the receptor- or transporter preparation and the radioligand. The test compound in proportion to its binding affinity and its concentration inhibits binding of the radioligand.
Human Dopamine D2L receptor-transfected CHO cells were collected by scraping into ice-cold Tris-HCl buffer ([…], pH 7.4). The suspension was centrifuged (23 500×g, 10 min, 4° C.) and pellets stored at −70° C. until require. They were then thawed and briefly homogenised using an Ultra-Turrax T25 homogeniser prior to dilution to an appropriate protein concentration optimised for specific and non-specific binding. [^3H]Spiperone (NEN, specific activity˜70 Ci/mmol) was diluted in Tris-HCl assay buffer containing NaCl, CaCl2, MgCl2, KCI (50, 120, 2, 1, and 5 mM respectively, adjusted to pH 7.7 with HCl) at a concentration of 2 nmol/L. Prepared radioligand (50 μl) was then incubated (30 min, 37° C.) with membrane preparations pre-diluted to an appropriate protein concentration (400 μl), and with 50 μl of either the 10% DMSO control, Butaclamol (10^−6 mol/L final concentration), or compound of interest. Membrane-bound activity was detected by filtration through a Packard Filtermate harvester onto Unifilterplates, washing with ice-old Tris-HCl buffer (50 mM; pH8.0; 3×4 ml). Filters were allowed to dry before adding scintillation fluid and counting in a Topcount scintillation counter. % Specific bound and competition binding curves were calculated using S-Plus software (Insightful).

human 5HT transporter = biological target: T2, human 5HT transporter (Homo sapiens, UniProt P31645); experiment: Binding experiment for 5-HT transporter, [3H]Paroxetine; conditions: 5HT transporter-transfected HEK cells, [3H]Paroxetine binding; read-out: pIC50 5HT reuptake inhibition (converted)
T2 construct: host or cells: HEK cells
Description: as §1
Frozen human 5HT transporter-transfected HEK cells (Perkin Elmer, Brussels) were thawed and briefly homogenised using an Ultra-Turrax T25 homogeniser prior to dilution to an appropriate protein concentration optimised for specific and non-specific binding. [^3H]Paroxetine (NEN, specific activity 20 Ci/mmol) was diluted in Tris-HCl assay buffer containing NaCl and KCl (50 mM 120 mM and 5 mM, respectively; pH 7.4) at a concentration of 5 nmol/L. Prepared radioligand (25 μl) was then incubated (60 min, 25° C.) with membrane preparations (200 μl) and with 25 μl of either 10% DMSO control, Imipramine (10^−6 mol/L final concentration), or compound of interest Membrane-bound activity was detected by filtration through a Packard Filtermate harvester onto Unifilterplates pre-soaked in 0.1% PEI, washing with ice-cold assay buffer (3×4 ml). Filters were dried prior to addition of scintillation fluid and then counting in a Topcount scintillation counter. % Specific bound and competition binding curves were calculated using S-Plus software (Insightful).

Human 5HT1A receptor = biological target: T3, Human 5HT1A receptor (Homo sapiens, UniProt P08908); experiment: Binding experiment for 5-HT1A receptor, [3H]8OHDPAT; conditions: membranes of 5HT1A receptor-transfected L929 cells, read-out: pIC50 5HT1A (converted)
T3 construct: expressed in transfected cells; host or cells: L929 cells (stably transfected)
T3 sequence (P08908 1-422): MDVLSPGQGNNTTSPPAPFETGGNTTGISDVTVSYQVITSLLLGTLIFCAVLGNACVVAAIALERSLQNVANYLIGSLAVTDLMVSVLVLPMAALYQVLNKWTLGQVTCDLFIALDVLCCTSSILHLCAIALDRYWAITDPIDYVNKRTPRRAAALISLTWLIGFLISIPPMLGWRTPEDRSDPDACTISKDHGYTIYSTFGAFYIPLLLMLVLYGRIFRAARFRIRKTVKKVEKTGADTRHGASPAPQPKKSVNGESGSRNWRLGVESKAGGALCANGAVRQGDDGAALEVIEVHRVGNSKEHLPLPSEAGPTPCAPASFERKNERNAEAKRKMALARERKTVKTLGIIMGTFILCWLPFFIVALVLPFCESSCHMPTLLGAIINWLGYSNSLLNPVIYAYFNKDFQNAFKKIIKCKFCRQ
Description: as §1
Human 5HT1A receptor-transfected L929 cells were collected by scraping into ice-cold Tris-HCl buffer (50 mM, pH 7.4). The suspension was centrifuged (23 500×g, 10 min, 4° C.) and pellets stored at −70° C. until required. They were then thawed and briefly homogenised using an Ultra-Turrax T25 homogeniser prior to dilution to an appropriate protein concentration optimised for specific and non-specific binding. [^3H]8OHDPAT (NEN, specific activity 127 Ci/mmol) was diluted in Tris-HCl assay buffer containing CaCl2 (50 mM and 4 mM, respectively; pH 7.7) at a concentration of 5 nmol/L. Prepared radioligand (50 μl) was then incubated (30 min, 37° C.) with membrane preparations from L929 cells stably-transfected with the h5HT1A gene construct (400 μl) and with 50 μl of either the 10% DMSO control, spiroxatrine (10^−6 mol/L final concentration), or compound of interest. Membrane-bound activity was detected by filtration through a Packard Filtermate harvester onto Unifaltemplates, washing with ice-cold Tris-HCI buffer (3×4 ml), followed by drying. Scintillation fluid was added and membranes were counted in a Topcount scintillation counter. % Specific bound and competition binding curves were calculated using S-Plus software (Insightful).

[2] = biological target: T4, Human Dopamine D3 receptor (Homo sapiens, UniProt P35462); experiment: Radioligand binding experiment for dopamine D3 receptor (hD3), [125I]Iodosulpride; conditions: membranes of D3 receptor-transfected CHO cells, read-out: pIC50 D3 (converted)
T4 construct: expressed in transfected cells; host or cells: CHO cells
Description: as §1
Human Dopamine D3 receptor-transfected CHO cells were collected by scraping into ice-cold Tris-HCl buffer (50 mM, pH 7.4). The suspension was centrifuged (23 500×g, 10 min, 4° C.) and pellets stored at −70° C. until required. They were then thawed and briefly homogenised using an Ultra-Turrax T25 homogeniser prior to dilution to an appropriate protein concentration optimised for specific and non-specific binding. [^125]Iodosulpride (Amersham, specific activity 2000 Ci/mmol) was diluted in Tris-HCl assay buffer containing NaCl, CaCl2, MgCl2, KCl and BSA (50, 120, 2, 1, 5 mM, 0.1% respectively, adjusted to pH 7.7 with HCl) at a concentration of 2 nmol/L. Prepared radioligand (20 μl) was incubated (60 min, RT) and with 20 μl of either the 10% DMSO control, Risperidone (10^−6 mol/L final concentration), or compound of interest, then with membrane preparations (80 μl). Overnight incubation followed after addition of WGA-coated PVT SPA beads (250 μl; Amersham) and membrane-bound counts measured in a Wallac Microbeta. % Specific bound and competition binding curves were calculated using S-Plus software (Insightful).

T4 sequence (P35462 whole entry): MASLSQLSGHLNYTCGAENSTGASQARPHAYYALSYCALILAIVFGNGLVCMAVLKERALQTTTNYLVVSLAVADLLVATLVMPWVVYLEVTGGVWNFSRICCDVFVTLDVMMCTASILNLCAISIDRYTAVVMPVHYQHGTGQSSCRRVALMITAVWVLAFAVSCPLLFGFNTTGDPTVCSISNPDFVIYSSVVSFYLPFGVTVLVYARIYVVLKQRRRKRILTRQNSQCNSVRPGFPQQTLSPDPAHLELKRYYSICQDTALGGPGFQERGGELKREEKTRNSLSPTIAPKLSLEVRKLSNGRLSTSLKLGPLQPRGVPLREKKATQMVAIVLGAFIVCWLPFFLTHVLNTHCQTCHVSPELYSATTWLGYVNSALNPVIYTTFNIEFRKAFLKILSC
T2 sequence (P31645 whole entry): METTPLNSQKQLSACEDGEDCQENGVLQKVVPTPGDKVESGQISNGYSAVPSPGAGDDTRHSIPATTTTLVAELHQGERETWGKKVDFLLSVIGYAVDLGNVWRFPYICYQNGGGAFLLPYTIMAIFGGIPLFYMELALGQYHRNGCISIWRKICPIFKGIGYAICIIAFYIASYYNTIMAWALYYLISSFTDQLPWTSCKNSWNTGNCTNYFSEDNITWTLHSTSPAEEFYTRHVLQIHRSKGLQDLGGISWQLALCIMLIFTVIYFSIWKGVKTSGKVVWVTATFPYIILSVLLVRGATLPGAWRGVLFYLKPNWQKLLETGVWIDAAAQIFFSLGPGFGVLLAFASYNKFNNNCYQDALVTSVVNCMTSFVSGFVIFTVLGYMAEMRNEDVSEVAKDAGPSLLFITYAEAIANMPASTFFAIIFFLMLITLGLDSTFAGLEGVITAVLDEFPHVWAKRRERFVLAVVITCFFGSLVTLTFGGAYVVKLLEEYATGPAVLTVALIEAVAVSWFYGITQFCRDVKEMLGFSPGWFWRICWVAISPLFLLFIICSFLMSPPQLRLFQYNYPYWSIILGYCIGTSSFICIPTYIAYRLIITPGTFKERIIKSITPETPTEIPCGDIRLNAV
T1 sequence (P14416 whole entry): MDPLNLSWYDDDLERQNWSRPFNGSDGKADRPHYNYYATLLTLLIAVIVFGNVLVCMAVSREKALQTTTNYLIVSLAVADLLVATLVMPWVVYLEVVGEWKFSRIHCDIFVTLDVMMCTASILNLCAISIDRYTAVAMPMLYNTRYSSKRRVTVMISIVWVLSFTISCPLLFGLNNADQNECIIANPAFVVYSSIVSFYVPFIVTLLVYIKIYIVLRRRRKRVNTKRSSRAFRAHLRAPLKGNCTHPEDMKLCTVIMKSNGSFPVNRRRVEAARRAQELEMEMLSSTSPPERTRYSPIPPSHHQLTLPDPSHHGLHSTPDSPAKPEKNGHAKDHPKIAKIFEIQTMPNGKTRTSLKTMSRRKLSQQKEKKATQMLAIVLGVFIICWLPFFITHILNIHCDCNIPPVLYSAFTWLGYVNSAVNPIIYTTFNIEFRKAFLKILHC

| Compound | IC50 [1] | IC50 (human 5HT transporter) | IC50 (Human 5HT1A receptor) | IC50 [2] |
| --- | --- | --- | --- | --- |
| O=[N+]([O-])c1ccc2[nH]cc(C3=CCN(CC4COc5ccncc5O4)CC3)c2c1 (racemic) [Compound 14] | 100 nM | 100 nM | 200 nM |  |
| N#Cc1ccc2[nH]cc(C3CCN(CC4COc5ccncc5O4)CC3)c2c1 (single isomer, unassigned) [Compound 22] | 794 nM | 501 nM | 10 nM |  |
| Oc1ccc2[nH]cc(C3CCN(CC4COc5ccncc5O4)CC3)c2c1 (stereo not drawn) [Compound 19] | 63.1 nM | 316 nM |  |  |
| Fc1cccc2c(C3CCN(CC4COc5ccncc5O4)CC3)c[nH]c12 (stereo not drawn) [Compound 24] | 25.1 nM | 316 nM |  |  |
| CN1CC(CN2CCC(c3c[nH]c4ccc(F)cc34)CC2)Oc2ncccc21 (stereo not drawn) [Compound 2] | 398 nM | 316 nM | 15.8 nM | 100 nM |
| O=[N+]([O-])c1ccc2[nH]cc(C3=CCN(CC4COc5ccncc5O4)CC3)c2c1 (single isomer, unassigned) [Compound 15] | 200 nM | 10 nM |  |  |
| Fc1ccc2[nH]cc(CCCNCC3Oc4cccnc4O3)c2c1 (stereo not drawn) [Compound 9] | > 1000 nM | 501 nM | 31.6 nM | 251 nM |
| Fc1ccc2c(C3CCN(CC4COc5ccncc5O4)CC3)c[nH]c2c1 (stereo not drawn) [Compound 23] | 25.1 nM | 251 nM |  |  |
| Brc1ccc2[nH]cc(C3=CCN(CC4COc5ccncc5O4)CC3)c2c1 (stereo not drawn) [Compound 13] | 158 nM | 100 nM |  |  |
| CN1CC(CNCCCc2c[nH]c3ccc(F)cc23)Oc2ncccc21 (stereo not drawn) [Compound 3] | > 1000 nM | 200 nM | 3.16 nM | 398 nM |
| Fc1cccc2c(C3=CCN(CC4COc5ccncc5O4)CC3)c[nH]c12 (stereo not drawn) [Compound 17] | 126 nM | 50.1 nM |  |  |
| CN1CC(CN2CC=C(c3c[nH]c4ccc(F)cc34)CC2)Oc2ncccc21 (stereo not drawn) [Compound 1] | 200 nM | 15.8 nM | 12.6 nM | 79.4 nM |
| Fc1ccc2[nH]cc(C3CCN(CC4COc5ccncc5O4)CC3)c2c1 (stereo not drawn) [Compound 5] | 79.4 nM | 126 nM | 39.8 nM | 6.31 nM |
| Fc1ccc2[nH]cc(CCCNCC3COc4ccncc4O3)c2c1 (stereo not drawn) [Compound 6] | 200 nM | 316 nM | 6.31 nM | 31.6 nM |
| Clc1ccc2[nH]cc(C3CCN(CC4COc5ccncc5O4)CC3)c2c1 (stereo not drawn) [Compound 18] | 31.6 nM | 200 nM |  |  |
| Fc1cccc2[nH]cc(C3=CCN(CC4COc5ccncc5O4)CC3)c12 (stereo not drawn) [Compound 12] |  | 100 nM |  | 158 nM |
| Fc1ccc2[nH]cc(C3=CCN(CC4COc5cccnc5O4)CC3)c2c1 (stereo not drawn) [I, reference compound] | 251 nM | 200 nM | 126 nM | 501 nM |
| O=[N+]([O-])c1ccc2[nH]cc(C3=CCN(CC4COc5ccncc5O4)CC3)c2c1 (single isomer, unassigned) [Compound 16] | 316 nM | 251 nM |  |  |
| N#Cc1ccc2[nH]cc(C3CCN(CC4COc5ccncc5O4)CC3)c2c1 (single isomer, unassigned) [Compound 21] | 79.4 nM | 20 nM | 31.6 nM |  |
| Fc1ccc2[nH]cc(CCCNCC3COc4cccnc4O3)c2c1 (stereo not drawn) [Compound 11] | 158 nM | 316 nM | 1.26 nM | 398 nM |
| N#Cc1ccc2[nH]cc(C3CCN(CC4COc5ccncc5O4)CC3)c2c1 (racemic) [Compound 20] | 63.1 nM | 39.8 nM |  |  |
| Fc1ccc2[nH]cc(CC3CCN(CC4COc5ccncc5O4)CC3)c2c1 (stereo not drawn) [Compound 25] | 794 nM | 63.1 nM |  |  |
